{"source": "patent US9107909B2", "about": "“Materials and methods to enhance hematopoietic stem cells engraftment procedures” (priority 2008, dated 2015)", "key": {"UCB CD34+ cells": {"tested_on": "UCB CD34+ cells", "assay": "Migration of human UCB CD34+ cells to rhSDF-1", "type": "cell-based", "conditions": "pulse exposure", "method": "Freshly isolated UCB CD34^+ cells were pulsed with dmPGE2 or vehicle for 2 hours, washed and resuspended in media with 10% HI-FCS and cultured at 37° C. for 16 hours. After incubation, cells were washed, resuspended in RPMI/0.5% BSA and migration to rhSDF-1 measured by flow cytometry. To block the CXCR4 receptor, replicate cells were incubated with 5 micrograms/ml AMD3100 for 30 minutes prior to the migration assay. Referring now to FIG. 10, the data are the Mean±SEM percentage migration for 3 experiments."}, "SKL cells": {"tested_on": "SKL cells", "assay": "Transwell migration of murine SKL cells to rmSDF-1α", "type": "cell-based, mouse", "conditions": "pulsed 2 hours, cultured 16 hours, migration 4 hours; vs vehicle", "method": "Freshly isolated Lineage^neg mouse bone marrow cells were pulsed with dmPGE2 or vehicle for 2 hours, washed and resuspended in media with 10% HI-FCS and cultured at 37° C. for 16 hours. After incubation, cells were washed, resuspended in RPMI/0.5% BSA and allowed to migrate in transwells to rmSDF-1α for 4 hours. Total cell migration was measured by flow cytometry. Referring now to FIG. 9, total SKL cell migration was higher for cells pulsed with dmPGE2. Data are the Mean±SEM percent migration for 3 experiments. ^†P<0.05 for dmPGE2 treated cells compared to cells treated with vehicle."}}}
{"molecule": "CCCCC[C@H](O)/C=C/[C@H]1[C@H](O)CC(=O)[C@@H]1C/C=C\\CCCC(=O)O", "note": "[PGE2, Prostaglandin E2]", "values": [{"measurement": "migration of human CD34+ cells to SDF-1α", "setting": "UCB CD34+ cells", "result": "Increases Migration"}]}
{"molecule": "CCCCC(C)(C)[C@H](O)/C=C/[C@H]1[C@H](O)CC(=O)[C@@H]1C/C=C\\CCCC(=O)O", "note": "[dmPGE2, 16,16-dimethyl prostaglandin E2]", "values": [{"measurement": "total SKL cell migration to rmSDF-1α", "setting": "SKL cells", "result": "higher"}]}
